Measured values: paper PMC12058896, “Potent antimicrobial activity of hydrogel loaded with the antimicrobial peptide, D-Bac8c^2,5 Leu, against monospecies and polymicrobial biofilms of Staphylococcus aureus and Pseudomonas aeruginosa” (Frontiers in Microbiology, 2025)
≈ marks a conversion by molar mass, not a printed value. Non-standard residues stand in square brackets, D forms with d. Residues, ends and D or L forms follow the SMILES beside them.

Tests used:
S. aureus strains = format: cell-based, Staphylococcus aureus; settings: 2 MRSA and 2 MSSA strains, summed up in text
Method: Strains used in the study were isolates of methicillin-resistant Staphylococcus aureus (MRSA); USA300 LAC, BH1CC ([O’Neill et al., 2007]), methicillin-sensitive S. aureus (MSSA); SH1000 ([Horsburgh et al., 2002]) and BH48 ([O’Neill et al., 2007]); and Pseudomonas aeruginosa PAO1 (ATCC […]). Clinical isolates were obtained from a previous collection of isolates of infected wounds. Bacteria were grown aerobically at 37°C with shaking at 200 rpm in Brain Heart Infusion (BHI, Oxoid, Ireland). Selective media, Mannitol Salt Agar (SLS, Ireland) and MacConkey agar (SLS, Ireland), for re-isolation of bacterial strains from mixed species biofilms were used. Bolton Broth (Fannin, Ireland) supplemented with 50% bovine heparin plasma (TebuBio, UK), and 5% laked horse blood (Sigma-Aldrich, Ireland) was used to mimic in vivo conditions for static antibiofilm testing. For dynamic biofilm growth Simulated Wound Fluid (SWF) prepared as described previously with slight modification, 3% v/v fetal bovine serum in maximum recovery diluent (Merck, Ireland) was used ([Barbour et al., 2016]).
Minimum inhibitory concentration (MIC) was determined aerobically using the broth microdilution assay as recommended by the Clinical and Laboratory Standards Institute (CLSI) ([CLSI, 2018]). […]

HUVEC = experiment: MTT cell viability; format: cell-based, human; settings: 24 h, 37°C, 5% CO2, average of three independent experiments

SMILES: CC(C)C[C@@H](NC(=O)[C@H](N)CCCNC(=N)N)C(=O)N[C@H](Cc1c[nH]c2ccccc12)C(=O)N[C@@H](C(=O)N[C@H](CC(C)C)C(=O)N[C@H](Cc1c[nH]c2ccccc12)C(=O)N[C@H](CCCNC(=N)N)C(=O)N[C@H](CCCNC(=N)N)C(N)=O)C(C)C [D-Bac8c^2,5 Leu] (H-[dR][dL][dW][dV][dL][dW][dR][dR]-NH2; N-terminus assumed)
- MIC against S. aureus strains (S. aureus strains): 8 µg/mL (≈ 6.76 µM)
- IC50 (50% cell viability), MTT (HUVEC): 134 µg/mL (≈ 113 µM)
